Data reported in patent publication US12077503B2, “Substituted cyclic amides and their use as herbicides” (FMC CORPORATION, priority 2015, dated 2024).

Columns and labels:
Type in all cases: in vivo
[1] = system: wheat (winter wheat, Triticum aestivum); experiment: Test C preemergence; conditions: for Plant response rating (scale of 0 to 100), Wheat: 31 g ai/ha, 0 is no effect, 100 is complete control; for Plant response rating, Wheat: scale 0 to 100, 0 no effect, 100 complete control
Outline: (§1)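 Assessment: visual, 13–15 d after treatment, 0 (no effect) to 100 (complete control) relative to controls. Treatment: preemergence to seeds in loam-sand soil, or postemergence to 1- to 4-leaf plants in peat-based medium. Formulation: non-phytotoxic solvent mixture with surfactant.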

[2] = system: lambsquarters (Chenopodium album); experiment: Test C preemergence; conditions: for Plant response rating (scale of 0 to 100), Lambsquarters: 31 g ai/ha, 0 is no effect, 100 is complete control; for Plant response rating, Lambsquarters: scale 0 to 100, 0 no effect, 100 complete control
Outline: as §1

corn (Zea mays) = experiment: Test C preemergence; conditions: for Plant response rating (scale of 0 to 100), Corn: 31 g ai/ha, 0 is no effect, 100 is complete control; for Plant response rating, Corn: scale 0 to 100, 0 no effect, 100 complete control
Outline: as §1

[3] = system: ragweed (common ragweed, Ambrosia elatior); experiment: Test C preemergence; conditions: for Plant response rating (scale of 0 to 100), Ragweed: 31 g ai/ha, 0 is no effect, 100 is complete control; for Plant response rating, Ragweed: scale 0 to 100, 0 no effect, 100 complete control
Outline: as §1

[4] = system: johnsongrass (Sorghum halepense); experiment: Test C preemergence; conditions: for Plant response rating (scale of 0 to 100), Johnsongrass: 31 g ai/ha, 0 is no effect, 100 is complete control; for Plant response rating, Johnsongrass: scale 0 to 100, 0 no effect, 100 complete control
Outline: as §1

[5] = system: foxtail, giant (giant foxtail, Setaria faberii); experiment: Test C preemergence; conditions: for Plant response rating (scale of 0 to 100), Foxtail, Giant: 31 g ai/ha, 0 is no effect, 100 is complete control; for Plant response rating, Foxtail, Giant: scale 0 to 100, 0 no effect, 100 complete control
Outline: as §1

[6] = system: oilseed rape (Brassica napus); experiment: Test C preemergence; conditions: for Plant response rating (scale of 0 to 100), Oilseed Rape: 31 g ai/ha, 0 is no effect, 100 is complete control; for Plant response rating, Oilseed Rape: scale 0 to 100, 0 no effect, 100 complete control
Outline: as §1

[7] = system: morningglory (Ipomoea coccinea); experiment: Test C preemergence; conditions: for Plant response rating (scale of 0 to 100), Morningglory: 31 g ai/ha, 0 is no effect, 100 is complete control; for Plant response rating, Morningglory: scale 0 to 100, 0 no effect, 100 complete control
Outline: as §1

[8] = system: barnyardgrass (Echinochloa crus-galli); experiment: Test C preemergence; conditions: for Plant response rating (scale of 0 to 100), Barnyardgrass: 31 g ai/ha, 0 is no effect, 100 is complete control; for Plant response rating, Barnyardgrass: scale 0 to 100, 0 no effect, 100 complete control
Outline: as §1

[9] = system: pigweed (Amaranthus retroflexus); experiment: Test C preemergence; conditions: for Plant response rating (scale of 0 to 100), Pigweed: 31 g ai/ha, 0 is no effect, 100 is complete control; for Plant response rating, Pigweed: scale 0 to 100, 0 no effect, 100 complete control
Outline: as §1

rice (Oryza sativa) = experiment: Test C flooded paddy test; conditions: Flood; for Plant response rating (scale of 0 to 100), Rice: 0 is no effect, 100 is complete control
Outline: (§2)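 Compound was added directly to paddy water held 3 cm above the soil, with plants at the 2-leaf stage. Injury was scored visually versus untreated controls after 13–15 d greenhouse growth, using a 0–100 scale where 100 means complete control.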

[10] = system: sedge, umbrella (small-flower umbrella sedge, Cyperus difformis); experiment: Test C flooded paddy test; conditions: Flood; for Plant response rating (scale of 0 to 100), Sedge, Umbrella: 0 is no effect, 100 is complete control
Outline: as §2

[11] = system: barnyardgrass (Echinochloa crus-galli); experiment: Test C flooded paddy test; conditions: Flood; for Plant response rating (scale of 0 to 100), Barnyardgrass: 0 is no effect, 100 is complete control
Outline: as §2

[12] = system: ducksalad (Heteranthera limosa); experiment: Test C flooded paddy test; conditions: Flood; for Plant response rating (scale of 0 to 100), Ducksalad: 0 is no effect, 100 is complete control
Outline: as §2

[13] = 31 g ai/ha, scale 0 to 100 (0 no effect, 100 complete control), 13 to 15 d

CN1C[C@H](c2ccc(C(F)(F)F)cc2)[C@@H](C(=O)Nc2ccccc2F)C1=O [Compound 622, (3S,4S)—N-(2-fluorophenyl)-1-methyl-2-oxo-4-[4-(trifluoromethyl)phenyl]-3-pyrrolidinecarboxamide]
Plant response rating (scale of 0 to 100), Wheat [1]: 30 | Plant response rating, Wheat ([1]; 62 g ai/ha): 40 | Plant response rating, Wheat ([1]; 125 g ai/ha): 70 | Plant response rating, Wheat ([1]; 250 g ai/ha): 80 | Plant response rating (scale of 0 to 100), Lambsquarters [2]: 75 | Plant response rating, Lambsquarters ([2]; 62 g ai/ha): 35 | Plant response rating, Lambsquarters ([2]; 125 g ai/ha): 70 | Plant response rating, Lambsquarters ([2]; 250 g ai/ha): 75 | Plant response rating (scale of 0 to 100), Corn (corn (Zea mays)): 5 | Plant response rating, Corn (corn (Zea mays); 62 g ai/ha): 45 | Plant response rating, Corn (corn (Zea mays); 125 g ai/ha): 85 | Plant response rating, Corn (corn (Zea mays); 250 g ai/ha): 80 | Plant response rating (scale of 0 to 100), Ragweed [3]: 45 | Plant response rating, Ragweed ([3]; 62 g ai/ha): 70 | Plant response rating, Ragweed ([3]; 125 g ai/ha): 85 | Plant response rating, Ragweed ([3]; 250 g ai/ha): 85 | Plant response rating (scale of 0 to 100), Johnsongrass [4]: 25 | Plant response rating, Johnsongrass ([4]; 62 g ai/ha): 60 | Plant response rating, Johnsongrass ([4]; 125 g ai/ha): 50 | Plant response rating, Johnsongrass ([4]; 250 g ai/ha): 65 | Plant response rating (scale of 0 to 100), Foxtail, Giant [5]: 90 | Plant response rating, Foxtail, Giant ([5]; 62 g ai/ha): 90 | Plant response rating, Foxtail, Giant ([5]; 125 g ai/ha): 95 | Plant response rating, Foxtail, Giant ([5]; 250 g ai/ha): 95 | Plant response rating (scale of 0 to 100), Oilseed Rape [6]: 60 | Plant response rating, Oilseed Rape ([6]; 62 g ai/ha): 85 | Plant response rating, Oilseed Rape ([6]; 125 g ai/ha): 85 | Plant response rating, Oilseed Rape ([6]; 250 g ai/ha): 85 | Plant response rating (scale of 0 to 100), Morningglory [7]: 0 | Plant response rating, Morningglory ([7]; 62 g ai/ha): 0 | Plant response rating, Morningglory ([7]; 125 g ai/ha): 25 | Plant response rating, Morningglory ([7]; 250 g ai/ha): 20 | Plant response rating (scale of 0 to 100), Barnyardgrass [8]: 90 | Plant response rating, Barnyardgrass ([8]; 62 g ai/ha): 95 | Plant response rating, Barnyardgrass ([8]; 125 g ai/ha): 90 | Plant response rating, Barnyardgrass ([8]; 250 g ai/ha): 95 | Plant response rating (scale of 0 to 100), Pigweed [9]: 75 | Plant response rating, Pigweed ([9]; 62 g ai/ha): 85 | Plant response rating, Pigweed ([9]; 125 g ai/ha): 85 | Plant response rating, Pigweed ([9]; 250 g ai/ha): 90

CN1C[C@H](c2ccc(F)c(F)c2)[C@@H](C(=O)Nc2cccc(F)c2F)C1=O [Compound 639, (3S,4S)—N-(2,3-difluorophenyl)-4-(3,4-difluorophenyl)-1-methyl-2-oxo-3-pyrrolidinecarboxamide]
Plant response rating (scale of 0 to 100), Wheat [1]: 0 | Plant response rating, Wheat ([1]; 62 g ai/ha): 65 | Plant response rating, Wheat ([1]; 125 g ai/ha): 80 | Plant response rating, Wheat ([1]; 250 g ai/ha): 85 | Plant response rating (scale of 0 to 100), Lambsquarters [2]: 20 | Plant response rating, Lambsquarters ([2]; 62 g ai/ha): 25 | Plant response rating, Lambsquarters ([2]; 125 g ai/ha): 40 | Plant response rating, Lambsquarters ([2]; 250 g ai/ha): 70 | Plant response rating (scale of 0 to 100), Corn (corn (Zea mays)): 5 | Plant response rating, Corn (corn (Zea mays); 62 g ai/ha): 40 | Plant response rating, Corn (corn (Zea mays); 125 g ai/ha): 80 | Plant response rating, Corn (corn (Zea mays); 250 g ai/ha): 85 | Plant response rating (scale of 0 to 100), Ragweed [3]: 5 | Plant response rating, Ragweed ([3]; 62 g ai/ha): 60 | Plant response rating, Ragweed ([3]; 125 g ai/ha): 75 | Plant response rating, Ragweed ([3]; 250 g ai/ha): 80 | Plant response rating (scale of 0 to 100), Johnsongrass [4]: 20 | Plant response rating, Johnsongrass ([4]; 62 g ai/ha): 65 | Plant response rating, Johnsongrass ([4]; 125 g ai/ha): 80 | Plant response rating, Johnsongrass ([4]; 250 g ai/ha): 90 | Plant response rating (scale of 0 to 100), Foxtail, Giant [5]: 90 | Plant response rating, Foxtail, Giant ([5]; 62 g ai/ha): 90 | Plant response rating, Foxtail, Giant ([5]; 125 g ai/ha): 95 | Plant response rating, Foxtail, Giant ([5]; 250 g ai/ha): 100 | Plant response rating (scale of 0 to 100), Oilseed Rape [6]: 0 | Plant response rating, Oilseed Rape ([6]; 62 g ai/ha): 60 | Plant response rating, Oilseed Rape ([6]; 125 g ai/ha): 85 | Plant response rating, Oilseed Rape ([6]; 250 g ai/ha): 90 | Plant response rating (scale of 0 to 100), Morningglory [7]: 20 | Plant response rating, Morningglory ([7]; 62 g ai/ha): 10 | Plant response rating, Morningglory ([7]; 125 g ai/ha): 35 | Plant response rating, Morningglory ([7]; 250 g ai/ha): 40 | Plant response rating (scale of 0 to 100), Barnyardgrass [8]: 90 | Plant response rating, Barnyardgrass ([8]; 62 g ai/ha): 95 | Plant response rating, Barnyardgrass ([8]; 125 g ai/ha): 95 | Plant response rating, Barnyardgrass ([8]; 250 g ai/ha): 100 | Plant response rating (scale of 0 to 100), Pigweed [9]: 40 | Plant response rating, Pigweed ([9]; 62 g ai/ha): 55 | Plant response rating, Pigweed ([9]; 125 g ai/ha): 65 | Plant response rating, Pigweed ([9]; 250 g ai/ha): 75 | Plant response rating, Rice (rice (Oryza sativa); [13]): 0 | Plant response rating (scale of 0 to 100), Rice (rice (Oryza sativa); 62 g ai/ha): 0 | Plant response rating (scale of 0 to 100), Rice (rice (Oryza sativa); 125 g ai/ha): 20 | Plant response rating (scale of 0 to 100), Rice (rice (Oryza sativa); 250 g ai/ha): 20 | Plant response rating, Sedge, Umbrella [10, 13]: 0 | Plant response rating (scale of 0 to 100), Sedge, Umbrella ([10]; 62 g ai/ha): 0 | Plant response rating (scale of 0 to 100), Sedge, Umbrella ([10]; 125 g ai/ha): 0 | Plant response rating (scale of 0 to 100), Sedge, Umbrella ([10]; 250 g ai/ha): 0 | Plant response rating, Barnyardgrass [11, 13]: 0 | Plant response rating (scale of 0 to 100), Barnyardgrass ([11]; 62 g ai/ha): 50 | Plant response rating (scale of 0 to 100), Barnyardgrass ([11]; 125 g ai/ha): 70 | Plant response rating (scale of 0 to 100), Barnyardgrass ([11]; 250 g ai/ha): 75 | Plant response rating, Ducksalad [12, 13]: 50 | Plant response rating (scale of 0 to 100), Ducksalad ([12]; 62 g ai/ha): 75 | Plant response rating (scale of 0 to 100), Ducksalad ([12]; 125 g ai/ha): 90 | Plant response rating (scale of 0 to 100), Ducksalad ([12]; 250 g ai/ha): 100
